Converted amounts (≈) assume the structure as drawn. Like-named read-outs stand apart in the source and are kept apart here.
Assays:
5-lipoxygenase (5-LPO) = target: T1, 5-lipoxygenase (5-LPO) (Rattus norvegicus, UniProt P12527); test: 5-Lipoxygenase (5-LPO) inhibitory activity: 5-HETE produced in a cell-free extract of rat basophilic leukemia (RBL-1) cells; assay type: biochemical
T1 construct: produced in a cell-free extract of rat basophilic leukemia cells (RBL-1 cells, ATCC CRL 1378); endogenous in cells; host or cells: RBL-1 cells (rat basophilic leukemia), ATCC CRL 1378; cell-free extract
T1 sequence (P12527 1-673): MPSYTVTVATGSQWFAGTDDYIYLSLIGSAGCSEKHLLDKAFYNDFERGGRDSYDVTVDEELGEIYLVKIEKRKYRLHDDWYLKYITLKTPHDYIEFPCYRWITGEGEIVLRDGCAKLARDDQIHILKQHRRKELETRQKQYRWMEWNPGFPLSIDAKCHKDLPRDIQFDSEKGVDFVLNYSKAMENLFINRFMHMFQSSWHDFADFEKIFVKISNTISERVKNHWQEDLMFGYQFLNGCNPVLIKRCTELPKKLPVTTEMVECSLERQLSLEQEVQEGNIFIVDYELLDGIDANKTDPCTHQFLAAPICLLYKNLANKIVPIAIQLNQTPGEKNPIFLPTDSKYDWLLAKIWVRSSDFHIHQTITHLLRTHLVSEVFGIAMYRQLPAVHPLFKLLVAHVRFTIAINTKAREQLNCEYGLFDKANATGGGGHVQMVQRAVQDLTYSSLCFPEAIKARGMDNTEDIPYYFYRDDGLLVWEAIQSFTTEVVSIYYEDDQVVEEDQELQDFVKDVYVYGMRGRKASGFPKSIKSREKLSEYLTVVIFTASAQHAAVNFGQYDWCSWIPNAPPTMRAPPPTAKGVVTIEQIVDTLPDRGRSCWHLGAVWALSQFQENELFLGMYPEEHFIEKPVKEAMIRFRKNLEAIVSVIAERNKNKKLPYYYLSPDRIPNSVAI
Description: 20-Jar Fermentation. A 5-ml portion of the seed culture was transferred into a 500-ml Erlenmeyer flask containing 100 ml of the seed medium described above. Fermentation was carried out for 3 days at 28° C. and 200 rpm. This seed culture (500 ml) was inoculated into a 20-liter jar fermentor containing 12 liters of the production medium composed of soluble starch 2%, Pharmamedia (Trader's Protein) 1%, yeast extract 0.2%, ZnSO4 ·7H2 O 0.003% and CaCO3 0.4% (pH 7.0) and fermented for 3 days under the following conditions: temperature, 28° C.; aeration, 10 liters/minute; internal pressure, 0.5 kg/cm^2; agitation, 250 rpm. For preparation of an assay sample, a 3-ml of the whole broth was extracted with the same volume of n-butanol. After centrifugation, the solvent layer was evaporated to dryness and dissolved into the same volume of 10% dimethylsulfoxide (DMSO) solution. The solution was used as an assay sample.

B16-F10 cells = test: In vitro cytotoxicity, B16-F10 (murine melanoma), neutral red, 72 hours; assay type: cell-based; conditions: for IC50: Mus musculus, B16-F10, 72 hours; for cytotoxicity: B16-F10, compared with BU-4664L
Description: (§1) In Vitro Cytoxicity. B16-F10 (murine melanoma) and Moser (human colorectal carcinoma) were grown in Eagle's minimum essential medium (Nissui) supplement with fetal calf serum (FCS, 10%) and kanamycin (60 μg/ml), HCT-116 (human colon carcinoma) cells were grown in McCoy's 5A Medium (Gibco) supplemented with FCS (10%), penicillin (100 u/ml) and streptomycin (100 μg/ml), and K562 (human myelogenous leukemia) were in RPM 11640 medium supplemented with FCS (10%), penicillin (100 u/ml) and streptomycin (100 μg/ml) at 37° C. under humidified atmosphere in a CO2 incubator. The exponentially growing B16-F10, Moser, K562 and HCT-116 cells were harvested, counted and suspended in the culture media at 1.5×10^4, 6×10^4, 3×10^4 and 8×10^4 cells/ml, respectively. The test materials were planted into the wells of 96 or 24-well tissue culture plate and for 72 hours. The cytotoxic activities were colorimetrically determined at 540 nm after staining viable cells with neutral red solution.

HCT-116 cells = test: In vitro cytotoxicity, HCT-116 (human colon carcinoma), neutral red, 72 hours; assay type: cell-based; conditions: for IC50: Homo sapiens, HCT-116, 72 hours; for cytotoxicity: HCT-116, compared with BU-4664L
Description: as §1

Moser cells = test: In vitro cytotoxicity, Moser (human colorectal carcinoma), neutral red, 72 hours; assay type: cell-based
Description: as §1

K562 cells = test: In vitro cytotoxicity, K562 (human myelogenous leukemia), neutral red, 72 hours; assay type: cell-based; conditions: K562, 72 hours
Description: as §1

[1] = tested on: K562, B16-F10 and Moser cells; test: In vitro cytotoxicity, range over K562, B16-F10 and Moser; assay type: cell-based, murine and human; conditions: vs K562, B16-F10 and Moser; read-out: IC50 (inhibited growth of tumor cell lines), range
Description: as §1

B16 melanoma = assay type: in vivo, mouse; conditions: ip; for MST (Median survival time) / T/C: Q4D × 3; for Avg Weight change on day 5: mouse, in vivo
Description: (§2) B16 melanoma was intraperitoneally (ip) inoculated with 0.5 ml of 10% brei per male BDF1 mouse, and P388 leukemia intraperitoneally inoculated with 10^6 cells per female CDF1 mouse. The test materials were intraperitoneally administered to the tumor-bearing mice by the following treatment schedules: once daily on days 1 to 3 (Q1D×3), once a day on days 1, 4, and 7 (Q3D×3) and once a day on days 1, 5 and 9 (Q4D×3).
(§3) The in vivo antitumor activity was determined in tumor-bearing mice.

P388 leukemia = assay type: in vivo, mouse; conditions: ip; for T/C: ≥ 125 significantly active; for Avg Weight change on day 4: mouse, in vivo
Description: as §2, §3

Solubility = assay type: physicochemical
[2] = Table 8, rat 5-LPO, read-out: IC50 (5-Lipoxygenase Inhibitory Activity)

With CC(C)=CCC/C(C)=C/CC/C(C)=C/CN1c2cc(O)cc(O)c2NC(=O)c2cccc(O)c21 [BU-4664L, 5-farnesyl-4,7,9-trihydroxy dibenzo[b,e][1,4]diazepin-11-one] the “5-LPO inhibitory activity” value (5-lipoxygenase (5-LPO); rat 5-LPO) was “good 5-LPO inhibitory activity”, the IC50 (5-lipoxygenase (5-LPO); rat 5-LPO, read-out: IC50 (5-LPO inhibitory activity)) was 1.7 µM and the IC50 (B16-F10 cells) was 1.9 mg/L (≈ 4.11 µM). The IC50 (HCT-116 cells) was 2.6 mg/L (≈ 5.62 µM), the IC50 (Moser cells) was 18 mg/L (≈ 38.9 µM) and the IC50 (K562 cells) was 1.1 mg/L (≈ 2.38 µM). For the same compound, the IC50 [1] was 1.1 to 18 mg/L (≈ 2.38 to 38.9 µM), the “survival time of mice inoculated with B16 melanoma” value (B16 melanoma) was “significant prolongation of the survival time” and the “MST (Median survival time)” value (B16 melanoma; 3 mg/kg/day) was 16.5 days. The T/C (B16 melanoma; 3 mg/kg/day) was 127%, the “MST (Median survival time)” value (B16 melanoma; 10 mg/kg/day) was 17.5 days and the T/C (B16 melanoma; 10 mg/kg/day) was 135%. The “MST (Median survival time)” value (B16 melanoma; 30 mg/kg/day) was 17.0 days, the T/C (B16 melanoma; 30 mg/kg/day) was 131% and the “activity against B16 melanoma in terms of minimum effective dose” value (B16 melanoma; compared with Mitomycin C) was “weaker than Mitomycin C”. The “Avg Weight change on day 5” value (B16 melanoma; 3 mg/kg/day) was “+0.3 g”, the “Avg Weight change on day 5” value (B16 melanoma; 10 mg/kg/day) was “+0.3 g” and the “Avg Weight change on day 5” value (B16 melanoma; 30 mg/kg/day) was -0.8 g. The “T/C values against P388 leukemia” value (P388 leukemia) was “good T/C values”, the “survival time of mice inoculated with P388” value (P388 leukemia) was “significant prolongation of the survival time” and the “MST (Median survival time)” value (P388 leukemia; 0.3 mg/kg/day, Q1D × 3) was 12.0 days. The T/C (P388 leukemia; 0.3 mg/kg/day, Q1D × 3) was 120%, the “MST (Median survival time)” value (P388 leukemia; 1 mg/kg/day, Q1D × 3) was 11.0 days and the T/C (P388 leukemia; 1 mg/kg/day, Q1D × 3) was 110%. The “MST (Median survival time)” value (P388 leukemia; 1 mg/kg/day, Q3D × 3) was 11.9 days, the T/C (P388 leukemia; 1 mg/kg/day, Q3D × 3) was 119% and the “MST (Median survival time)” value (P388 leukemia; 3 mg/kg/day, Q1D × 3) was 13.0 days. For the same compound, the T/C (P388 leukemia; 3 mg/kg/day, Q1D × 3) was 130%, the “MST (Median survival time)” value (P388 leukemia; 3 mg/kg/day, Q3D × 3) was 15.2 days and the T/C (P388 leukemia; 3 mg/kg/day, Q3D × 3) was 152%. For the same compound, the “MST (Median survival time)” value (P388 leukemia; 10 mg/kg/day, Q1D × 3) was 15.0 days, the T/C (P388 leukemia; 10 mg/kg/day, Q1D × 3) was 150% and the “MST (Median survival time)” value (P388 leukemia; 10 mg/kg/day, Q3D × 3) was 16.2 days. The T/C (P388 leukemia; 10 mg/kg/day, Q3D × 3) was 162%, the “MST (Median survival time)” value (P388 leukemia; 30 mg/kg/day, Q1D × 3) was 16.0 days and the T/C (P388 leukemia; 30 mg/kg/day, Q1D × 3) was 160%. For the same compound, the “MST (Median survival time)” value (P388 leukemia; 30 mg/kg/day, Q3D × 3) was 12.5 days, the T/C (P388 leukemia; 30 mg/kg/day, Q3D × 3) was 152% and the “Avg Weight change on day 4” value (P388 leukemia; 0.3 mg/kg/day) was “+0.5 g”. For the same compound, the solubility (Solubility; chloroform) was “slightly soluble”, the solubility (Solubility; dimethyl sulfoxide) was “soluble” and the solubility (Solubility; ethanol) was “soluble”. The solubility (Solubility; ethyl acetate) was “soluble”, the solubility (Solubility; methanol) was “soluble” and the solubility (Solubility; n-hexane) was “insoluble”. The solubility (Solubility; water) was “insoluble”.
In the case of CC(=O)Oc1cc(OC(C)=O)c2c(c1)N(C/C=C(\C)CC/C=C(\C)CCC=C(C)C)c1c(OC(C)=O)cccc1C(=O)N2 [Triacetyl BU-4664L], the IC50 (5-lipoxygenase (5-LPO); [2]) is reported as > 34 µM, the “5-LPO inhibitory activity” value (5-lipoxygenase (5-LPO); rat 5-LPO) is reported as “seemed to be devoid of 5-LPO inhibitory activity” and the “cytotoxicity” value (B16-F10 cells) is reported as “weaker cytotoxicity”. For the same compound, the IC50 (B16-F10 cells) was 2.4 mg/L (≈ 4.08 µM), the “cytotoxicity” value (HCT-116 cells) was “weaker cytotoxicity” and the IC50 (HCT-116 cells) was 4.4 mg/L (≈ 7.47 µM).
In the case of CO[C@@]12[C@H](COC(N)=O)C3=C(C(=O)C(C)=C(N)C3=O)N1C[C@@H]1N[C@@H]12 [Mitomycin C, reference compound], the “MST (Median survival time)” value (B16 melanoma; 0.5 mg/kg/day) is reported as 16.0 days, the T/C (B16 melanoma; 0.5 mg/kg/day) is reported as 123% and the “MST (Median survival time)” value (B16 melanoma; 1 mg/kg/day) is reported as 22.5 days. The T/C (B16 melanoma; 1 mg/kg/day) was 173%, the “MST (Median survival time)” value (B16 melanoma; 2 mg/kg/day) was 26.7 days and the T/C (B16 melanoma; 2 mg/kg/day) was 204%. For the same compound, the “Avg Weight change on day 5” value (B16 melanoma; 0.5 mg/kg/day) was “+0.8 g”, the “Avg Weight change on day 5” value (B16 melanoma; 1 mg/kg/day) was “+0.5 g” and the “Avg Weight change on day 5” value (B16 melanoma; 2 mg/kg/day) was “+0.3 g”. The “MST (Median survival time)” value (P388 leukemia; 0.3 mg/kg/day, Q1D × 3) was 12.5 days, the T/C (P388 leukemia; 0.3 mg/kg/day, Q1D × 3) was 119% and the “MST (Median survival time)” value (P388 leukemia; 1 mg/kg/day, Q1D × 3) was 16.0 days. The T/C (P388 leukemia; 1 mg/kg/day, Q1D × 3) was 152%, the “MST (Median survival time)” value (P388 leukemia; 3 mg/kg/day, Q1D × 3) was 21.0 days and the T/C (P388 leukemia; 3 mg/kg/day, Q1D × 3) was 200%. The “Avg Weight change on day 4” value (P388 leukemia; 0.3 mg/kg/day) was “+0.3 g”, the “Avg Weight change on day 4” value (P388 leukemia; 1 mg/kg/day) was 0.0 g and the “Avg Weight change on day 4” value (P388 leukemia; 3 mg/kg/day) was -1.5 g.
With COc1cc(OC)c2c(c1)N(C/C=C(\C)CC/C=C(\C)CCC=C(C)C)c1c(OC)cccc1C(=O)N2 [Trimethyl BU-4664L] the IC50 (5-lipoxygenase (5-LPO); [2]) was > 39.6 µM, the “5-LPO inhibitory activity” value (5-lipoxygenase (5-LPO); rat 5-LPO) was “seemed to be devoid of 5-LPO inhibitory activity” and the “cytotoxicity” value (B16-F10 cells) was “weaker cytotoxicity”. For the same compound, the IC50 (B16-F10 cells) was 21 mg/L (≈ 41.6 µM), the “cytotoxicity” value (HCT-116 cells) was “weaker cytotoxicity” and the IC50 (HCT-116 cells) was 12.5 mg/L (≈ 24.8 µM).

Reference: patent US5541181A, “Compound produced by a strain of micromonospora” (Bristol-Myers Squibb Company, priority 1994, dated 1996)
